Where two headings read alike, the source gives them in different places. Where a SMILES comes first, the peptide text is derived from it. Bridges are numbered along the chain shown (N, C = ends). Where no end group is shown, it is not given here. [ ]: non-standard residue; d: D form.

Data set [1] concerns the target T1, rat ASIC3 (Rattus norvegicus, UniProt O35240).
T1 construct: expressed in transfected cells; host or cells: Xenopus laevis oocytes injected with cRNA from a PCi plasmid
T1 sequence (O35240 1-533): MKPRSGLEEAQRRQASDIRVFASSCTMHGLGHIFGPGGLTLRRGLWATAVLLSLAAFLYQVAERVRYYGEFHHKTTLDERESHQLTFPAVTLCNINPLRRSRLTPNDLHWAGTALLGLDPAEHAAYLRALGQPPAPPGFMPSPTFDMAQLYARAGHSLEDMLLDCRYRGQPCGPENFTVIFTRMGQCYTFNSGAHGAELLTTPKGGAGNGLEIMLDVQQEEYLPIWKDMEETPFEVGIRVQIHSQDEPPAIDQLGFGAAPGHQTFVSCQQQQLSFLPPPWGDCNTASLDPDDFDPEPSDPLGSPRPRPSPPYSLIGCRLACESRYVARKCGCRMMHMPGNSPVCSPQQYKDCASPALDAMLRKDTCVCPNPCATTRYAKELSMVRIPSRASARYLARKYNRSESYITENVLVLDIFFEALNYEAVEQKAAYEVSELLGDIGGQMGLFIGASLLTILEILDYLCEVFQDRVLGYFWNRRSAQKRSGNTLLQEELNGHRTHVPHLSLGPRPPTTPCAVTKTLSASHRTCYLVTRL
Description: cell-based.

In data set [2] the test system is ASIC channels. To be noted: cited from earlier work.
Data set [3] has as its system ASIC1a and ASIC1a-containing channels. Conditions: cited from earlier work.
For a further data set, the system named is ASIC1. Conditions: cited from earlier work.
In data set [4] the target is T2, human ASIC3 (Homo sapiens, UniProt Q9UHC3).
T2 construct: expressed in transfected cells; host or cells: Xenopus laevis oocytes injected with cRNA from a pVAX1 plasmid
T2 sequence (Q9UHC3 1-531): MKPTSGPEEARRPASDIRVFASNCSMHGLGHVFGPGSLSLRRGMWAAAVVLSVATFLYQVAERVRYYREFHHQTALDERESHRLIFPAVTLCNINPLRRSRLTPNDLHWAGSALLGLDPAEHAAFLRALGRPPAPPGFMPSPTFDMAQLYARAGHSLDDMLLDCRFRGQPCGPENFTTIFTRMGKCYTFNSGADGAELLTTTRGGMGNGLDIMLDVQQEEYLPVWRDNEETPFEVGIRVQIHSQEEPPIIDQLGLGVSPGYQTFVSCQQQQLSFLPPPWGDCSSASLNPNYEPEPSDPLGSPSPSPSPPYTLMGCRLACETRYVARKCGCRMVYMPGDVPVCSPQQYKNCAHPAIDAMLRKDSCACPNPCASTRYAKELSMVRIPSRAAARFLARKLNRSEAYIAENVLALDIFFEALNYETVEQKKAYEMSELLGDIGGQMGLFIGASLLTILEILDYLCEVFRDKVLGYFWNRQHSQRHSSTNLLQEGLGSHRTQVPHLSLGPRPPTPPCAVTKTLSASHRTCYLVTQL
Description: steady-state desensitization of human ASIC3. It is filed as cell-based. To be noted: pH 7.4; 1 mM Taf; without Taf 11 ± 2%; control = pH drop 8.0 to 5.5; mean ± SEM, n = 5; p = 0.005; read-out: total integral current at conditioning pH 7.4, % of control.

Data set [5] has as its target T3, rat ASIC1a (Rattus norvegicus, UniProt P55926).
T3 construct: expressed in transfected cells; host or cells: Xenopus laevis oocytes injected with cRNA from a PCi plasmid
T3 sequence (P55926 1-526): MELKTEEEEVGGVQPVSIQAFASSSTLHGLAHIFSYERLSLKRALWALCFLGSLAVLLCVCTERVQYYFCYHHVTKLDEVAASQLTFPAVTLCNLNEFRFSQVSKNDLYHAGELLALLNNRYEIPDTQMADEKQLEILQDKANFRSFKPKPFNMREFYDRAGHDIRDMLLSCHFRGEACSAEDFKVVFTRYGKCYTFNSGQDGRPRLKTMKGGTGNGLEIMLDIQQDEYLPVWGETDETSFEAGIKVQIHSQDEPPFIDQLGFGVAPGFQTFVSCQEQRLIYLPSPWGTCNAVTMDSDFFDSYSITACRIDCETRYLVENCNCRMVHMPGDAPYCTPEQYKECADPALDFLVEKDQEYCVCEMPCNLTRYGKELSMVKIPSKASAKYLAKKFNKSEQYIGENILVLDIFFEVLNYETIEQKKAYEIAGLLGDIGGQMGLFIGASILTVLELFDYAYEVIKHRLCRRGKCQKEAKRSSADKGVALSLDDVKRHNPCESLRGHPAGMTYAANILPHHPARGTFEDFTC
Briefly: two-electrode voltage clamp, homomeric rat ASIC1a in X. laevis oocytes. It is filed as cell-based. For orientation: Two-electrode voltage clamp is typically applied to oocytes expressing channels or transporters.

Data set [6] deals with T1, rat ASIC3. Briefly: steady-state desensitization (SSD) of rat ASIC3. It is filed as cell-based. To be noted: pH 7, without Taf 1.4 ± 0.2%, control = pH drop 7.4 to 5.5, mean ± SEM, n = 5, read-out: integral current at conditioning pH 7.0, % of control.
Data set [7] has as its target T1, rat ASIC3. Description: two-electrode voltage clamp, homomeric rat ASIC3 in X. laevis oocytes. Type of data set: cell-based.
Data set [8] deals with T2, human ASIC3. Description: two-electrode voltage clamp, human ASIC3 in X. laevis oocytes. It is filed as cell-based.
For data set [9] the following is noted: solution for subcutaneous administration; ref manufacturer's website https://sotex.ru/production/catalog/detail.php?ELEMENT_ID=4952; cited from earlier work. An excerpt:
Due to the modulating effect of Taf towards ASIC3 in peripheral neurons, the proven analgesic effect of Taf on human may be accompanied by the development of side effects such as pain, mechanical hyperalgesia, inflammatory muscle and joint hyperalgesia, etc., where ASIC3 plays a crucial role. In addition, the significant modulating effect on ASIC1b/3 heteromers (Figure 7) may also have a negative impact on both peripheral acute and acid-induced chronic pain, where the ASIC1b-containing channels also play an important role. Indeed, the recommended dose for subcutaneous a ...

Data set [10] addresses T3, rat ASIC1a. Description: steady-state desensitization of rat ASIC1a. Type of data set: cell-based. Conditions: 1 mM Taf; without Taf 9.1 ± 2.5%; stimulus pH 5.5; mean ± SEM, n = 5; p = 0.9; read-out: integral current at conditioning pH 7.0, % of control.
The subject of data set [11] is ASIC3. To be noted: mice; activation of ASIC3; ref [31],[32]; cited from earlier work. An excerpt:
In this study, we have investigated the pharmacological effect of tafalgin (Taf) on ASICs. […] These channels, preferably having a neuronal localization, play an important role in the functioning of CNS and PNS, and are involved in the regulation of synaptic plasticity and learning, the fear perception, and responses to ischemic stroke, multiple sclerosis, and nociception. Positive modulators of ASICs are shown to have ...

Data set [12] has as its system ASIC channels. Details: method as in PMID 34721074. Conditions: dual-action ligand; ref [39]; cited from earlier work.
Data set [13] has as its system ASIC3. Details: method as in PMID 37918499. Conditions: suppressing morphine-induced microglial activation through ASIC3 inhibition; ref [40]; cited from earlier work.

For the molecule “GTACSCGNSKGIYWFYRPSCPTDRGYTGSCRYFLGTCCTPAD (disulfide 4-37, 6-30, 20-38) [APETx2]”, the τdes on rat ASIC3 [1] (100 nM APETx2, control 282 ± 22 ms, mean ± SEM, n = 5, p = 0.2) stood at 240 ± 22 ms. In addition, the “nH of inhibition in the presence of Taf” value on rat ASIC3 [1] (APETx2 + 0.3 mM Taf, mean ± SEM, 5–6 cells) came to 1.11 ± 0.05. The nH of inhibition at rat ASIC3 [1] (APETx2 alone, mean ± SEM, 5–6 cells) is recorded as 1.37 ± 0.05. Also, on rat ASIC3 [1] (APETx2 alone, pH 7.4 to 5.5), the “inhibition of the channel” value is on record as “completely inhibited the channel”.

As to DAMGO, in the data set on ASIC channels [2], the “effect on ASIC channels” value is “negative modulators”.

In the case of dynorphin, the “effect on proton-evoked currents” value in [3] was “restore the proton-evoked currents”. Further, the acidosis-induced neuronal death result in the data set on ASIC1 was “increase the acidosis-induced neuronal death”.

As to `COc1ccc2c3c1O[C@H]1C(=O)CC[C@@]4(O)[C@@H](C2)N(C)CC[C@]314` [oxycodone], the “effect on ASIC channels” value in the data set on ASIC channels [2] is “positive modulating effect”.

Consider `C[C@@H](NC(=O)[C@@H](N)Cc1ccc(O)cc1)C(=O)N[C@@H](Cc1ccccc1)C(=O)NCC(N)=O` [Taf, Tyr-D-Ala-Phe-Gly-NH2] (H-Y[dA]FG-NH2), for which the values for the remaining activity at 1000 µM at human ASIC3 [4] and at rat ASIC1a [10] were 22 ± 4% and 9.4 ± 2.5%, respectively. Besides, the EC50 (in general, the concentration needed to bring the measured effect to its halfway point) on rat ASIC1a [5] worked out at 1050 ± 270 µM; at rat ASIC3 [7], 86 ± 24 µM; at human ASIC3 [8] it was 330 ± 80 µM. For the same molecule, the “increase in the integral current” value on rat ASIC1a [5] (0.3 mM Taf, Vh −50 mV, pH 7.4 to 5.5, mean ± SEM, n = 5, p < 0.001) worked out at 40 ± 5%; at rat ASIC3 [7] (0.3 mM Taf, Vh −50 mV, pH 5.5 stimulus, isoform screening, mean ± SEM, n = 5, p < 0.001) it was 115 ± 6%. Further, the “integral current Imax, % of control” value on rat ASIC1a [5] (pH 7.4 to 5.5, mean ± SEM, n = 10, same as rASIC3 (p = 0.45)) came to 332 ± 103%. Further, on rat ASIC3 [6] (0.3 mM Taf, p = 0.009), the remaining activity at 300 µM is 3.6 ± 0.3%. For the same molecule, the remaining activity at 2000 µM at rat ASIC3 [6] (2 mM Taf) was 50 ± 3%. Moreover, the “increase in the integral current, protocol p.-a.” value at rat ASIC3 [7] (0.3 mM Taf pre-applied 30 s in resting state, conditioning pH 7.4, stimulus pH 5.5, mean ± SEM, n = 5, p < 0.001) was 116 ± 5%. Further, the “maximum current (Imax), to control” value on rat ASIC3 [7] (integral current vs control (pH drop from 7.4 to 5.5), mean ± SEM, n = 9) amounted to 251 ± 15%. The “Imax (upper asymptote), % of control” value at human ASIC3 [8] (integral current, pH 8.0 to 5.5, mean ± SEM, 5 cells) came to 373 ± 28%. Further, the “recommended subcutaneous dose concentration (~9 mM) over EC50 for human ASIC3” value at human ASIC3 [8] (~9 mM solution vs EC50 on hASIC3) is “approximately 30 times”. In addition, the side effects result in data set [9] was “peripheral neuropathy, itching, and pain at the injection site”.

On to `Cc1nc(NC(=N)N)nc2ccccc12` [2-guanidine-4-methylquinazoline], for which, in the data set on ASIC3 [11], the nocifensive behavior entry was “induce nocifensive behavior in mice”.

Turning to `CN1CC[C@]23c4c5ccc(O)c4O[C@H]2[C@@H](O)C=C[C@H]3[C@H]1C5` [morphine], in the data set on ASIC channels [2], the “effect on ASIC channels” value is recorded as “negative modulators”.

As to `N=C(N)NC(=O)c1nc(Cl)c(N)nc1N` [Ami, amiloride], the “action on ASIC channels” value in the data set with ASIC channels [12] is “capable of blocking ASIC channels and acting as an ASIC3-positive modulator”. Further, at rat ASIC3 [1], the “nH of inhibition in the presence of Taf” value is recorded as 1.06 ± 0.37; the “residual integral current in the presence of Taf, % of control” value stood at 129 ± 9%; the τdes was 732 ± 46 ms. Further, the IC50 (in general, the concentration needed to halve the response being measured) at rat ASIC3 [1] (half-maximal inhibitory concentration (IC50)) is 66.9 ± 5.2 µM. For the same molecule, the half-maximal inhibitory concentration (IC50) at rat ASIC3 [1] (half-maximal inhibitory concentration (IC50) in the presence of Taf) was 61.5 ± 21.2 µM. Further, on rat ASIC3 [1] (pH 7.4), the nH of inhibition was determined as 0.87 ± 0.05 and the “residual integral current (lower asymptote), % of control” value turned out to be 36 ± 2%. In addition, in the data set with ASIC3 [13], the chronic morphine tolerance entry is “reduce chronic morphine tolerance”.

The values above are taken from article PMC10855113, “Opioid Analgesic as a Positive Allosteric Modulator of Acid-Sensing Ion Channels” (International Journal of Molecular Sciences, 2024).
